According to PubChem BioAssay (NCI):
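1) Cells in 96-well plates. 2) Compound, 48 h, 5 concentrations. 3) Linear interpolation between surrounding doses. 4) Unreached endpoint = highest concentration. GI50: concentration for 50% inhibition of growth. TGI denotes the concentration required for complete inhibition of growth.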

How the values were obtained:
Assay in all cases: inhibition of tumour cell growth, NCI panel, 48 h
KM12 colon = test system: KM12 colon
HT29 colon = test system: HT29 colon
A549 NSCLC = test system: A549 NSCLC
HCC-2998 colon = test system: HCC-2998 colon
OVCAR-5 ovarian = test system: OVCAR-5 ovarian
UO-31 renal = test system: UO-31 renal
COLO 205 colon = test system: COLO 205 colon
BT-549 breast = test system: BT-549 breast
TK-10 renal = test system: TK-10 renal
MALME-3M melanoma = test system: MALME-3M melanoma
OVCAR-8 ovarian = test system: OVCAR-8 ovarian
MOLT-4 leukemia = test system: MOLT-4 leukemia
MCF7 breast = test system: MCF7 breast
SN12C renal = test system: SN12C renal
NCI-H460 lung = test system: NCI-H460 lung
PC-3 prostate = test system: PC-3 prostate
OVCAR-4 ovarian = test system: OVCAR-4 ovarian
OVCAR-3 ovarian = test system: OVCAR-3 ovarian
A498 renal = test system: A498 renal
NCI-H226 lung = test system: NCI-H226 lung
SK-MEL-5 melanoma = test system: SK-MEL-5 melanoma
RXF 393 renal = test system: RXF 393 renal
SK-OV-3 ovarian = test system: SK-OV-3 ovarian
786-0 renal = test system: 786-0 renal
HCT-116 colon = test system: HCT-116 colon
CAKI-1 renal = test system: CAKI-1 renal
NCI/ADR-RES ovarian = test system: NCI/ADR-RES ovarian
IGROV1 ovarian = test system: IGROV1 ovarian
RPMI-8226 leukemia = test system: RPMI-8226 leukemia
MDA-MB-435 = test system: MDA-MB-435
EKVX NSCLC = test system: EKVX NSCLC
UACC-62 melanoma = test system: UACC-62 melanoma
SNB-75 CNS = test system: SNB-75 CNS
M14 melanoma = test system: M14 melanoma
HOP-92 NSCLC = test system: HOP-92 NSCLC
SW-620 colon = test system: SW-620 colon
SK-MEL-28 melanoma = test system: SK-MEL-28 melanoma
NCI-H23 lung = test system: NCI-H23 lung
SF-295 CNS = test system: SF-295 CNS
HL-60(TB) leukemia = test system: HL-60(TB) leukemia
HS 578T breast = test system: HS 578T breast
ACHN renal = test system: ACHN renal
SF-268 CNS = test system: SF-268 CNS
U251 CNS = test system: U251 CNS
MDA-MB-231 breast = test system: MDA-MB-231 breast
HCT-15 colon = test system: HCT-15 colon
LOX IMVI melanoma = test system: LOX IMVI melanoma
UACC-257 melanoma = test system: UACC-257 melanoma
T-47D breast = test system: T-47D breast
SK-MEL-2 melanoma = test system: SK-MEL-2 melanoma
SNB-19 CNS = test system: SNB-19 CNS
CCRF-CEM leukemia = test system: CCRF-CEM leukemia
DU-145 prostate = test system: DU-145 prostate
NCI-H522 lung = test system: NCI-H522 lung
K-562 leukemia = test system: K-562 leukemia
HOP-62 NSCLC = test system: HOP-62 NSCLC
SR leukemia = test system: SR leukemia

## c1ccc2c(c1)ccc1c3ccccc3c(NCCCCN3CCCCC3)cc21
KM12 colon
  GI50: 1.75 µM
  TGI: 3.25 µM
HT29 colon
  GI50: 3.5 µM
  TGI: > 100 µM
A549 NSCLC
  GI50: 3.1 µM
  TGI: > 100 µM
HCC-2998 colon
  GI50: 1.75 µM
  TGI: 3.36 µM
OVCAR-5 ovarian
  GI50: 1.69 µM
  TGI: 3.2 µM

## Oc1ccc(Cc2ccc(O)c3ncccc23)c2cccnc12
UO-31 renal
  GI50: 0.0322 µM
  TGI: > 100 µM
COLO 205 colon
  GI50: > 100 µM
  TGI: > 100 µM
BT-549 breast
  GI50: 0.0382 µM
  TGI: > 100 µM
TK-10 renal
  GI50: 0.238 µM
  TGI: 0.996 µM
MALME-3M melanoma
  GI50: 0.0497 µM
  TGI: > 100 µM
OVCAR-8 ovarian
  GI50: 0.0477 µM
  TGI: > 100 µM
MOLT-4 leukemia
  GI50: 0.231 µM
  TGI: > 100 µM
MCF7 breast
  GI50: 0.0524 µM
  TGI: > 100 µM
SN12C renal
  GI50: 0.0361 µM
  TGI: > 100 µM
NCI-H460 lung
  GI50: 0.0323 µM
  TGI: > 100 µM
PC-3 prostate
  GI50: 0.0583 µM
  TGI: 53.2 µM
OVCAR-4 ovarian
  GI50: 0.371 µM
  TGI: > 100 µM
OVCAR-3 ovarian
  GI50: 0.138 µM
  TGI: > 100 µM
A498 renal
  GI50: 0.223 µM
  TGI: 0.706 µM
NCI-H226 lung
  GI50: 0.373 µM
  TGI: 42.7 µM
SK-MEL-5 melanoma
  GI50: 0.12 µM
  TGI: 0.609 µM
RXF 393 renal
  GI50: 0.154 µM
  TGI: > 100 µM
SK-OV-3 ovarian
  GI50: 0.214 µM
  TGI: 0.653 µM
KM12 colon
  GI50: 0.149 µM
  TGI: > 100 µM
HT29 colon
  GI50: > 100 µM
  TGI: > 100 µM
786-0 renal
  GI50: 0.193 µM
  TGI: > 100 µM
HCT-116 colon
  GI50: 0.0359 µM
  TGI: > 100 µM
CAKI-1 renal
  GI50: 0.341 µM
  TGI: > 100 µM
NCI/ADR-RES ovarian
  GI50: 0.212 µM
  TGI: > 100 µM
IGROV1 ovarian
  GI50: 0.0776 µM
  TGI: > 100 µM
RPMI-8226 leukemia
  GI50: 0.0424 µM
  TGI: 1.55 µM
A549 NSCLC
  GI50: 0.0371 µM
  TGI: 73.9 µM
MDA-MB-435
  GI50: 0.0383 µM
  TGI: > 100 µM
EKVX NSCLC
  GI50: 0.344 µM
  TGI: > 100 µM
UACC-62 melanoma
  GI50: 0.0408 µM
  TGI: 0.804 µM
SNB-75 CNS
  GI50: 0.0368 µM
  TGI: > 100 µM
M14 melanoma
  GI50: 0.0423 µM
  TGI: > 100 µM
HOP-92 NSCLC
  GI50: 0.0114 µM
  TGI: 0.0513 µM
SW-620 colon
  GI50: 0.0417 µM
  TGI: > 100 µM
SK-MEL-28 melanoma
  GI50: 0.0607 µM
  TGI: > 100 µM
NCI-H23 lung
  GI50: 0.0448 µM
  TGI: > 100 µM
SF-295 CNS
  GI50: 0.294 µM
  TGI: 0.948 µM
HL-60(TB) leukemia
  GI50: 0.263 µM
  TGI: > 100 µM
HS 578T breast
  GI50: 0.0365 µM
  TGI: > 100 µM
ACHN renal
  GI50: 0.0367 µM
  TGI: > 100 µM
SF-268 CNS
  GI50: 0.0527 µM
  TGI: > 100 µM
HCC-2998 colon
  GI50: 0.524 µM
  TGI: > 100 µM
OVCAR-5 ovarian
  GI50: 0.269 µM
  TGI: > 100 µM
U251 CNS
  GI50: 0.0355 µM
  TGI: > 100 µM
MDA-MB-231 breast
  GI50: 0.0487 µM
  TGI: > 100 µM
HCT-15 colon
  GI50: 0.0712 µM
  TGI: > 100 µM
LOX IMVI melanoma
  GI50: 0.0402 µM
  TGI: > 100 µM
UACC-257 melanoma
  GI50: 0.236 µM
  TGI: 0.709 µM
T-47D breast
  GI50: 0.15 µM
  TGI: 0.704 µM
SK-MEL-2 melanoma
  GI50: 0.228 µM
  TGI: 0.681 µM
SNB-19 CNS
  GI50: 0.0361 µM
  TGI: 29.6 µM
CCRF-CEM leukemia
  GI50: 0.209 µM
  TGI: > 100 µM
DU-145 prostate
  GI50: 0.0564 µM
  TGI: > 100 µM
NCI-H522 lung
  GI50: 0.0439 µM
  TGI: 0.531 µM
K-562 leukemia
  GI50: 0.0425 µM
  TGI: > 100 µM
HOP-62 NSCLC
  GI50: 0.0442 µM
  TGI: 1.09 µM

## Oc1ccc(/C=N\Nc2ccccn2)c(O)c1
UO-31 renal
  GI50: 0.241 µM
  TGI: 0.719 µM
COLO 205 colon
  GI50: 5.83 µM
  TGI: > 100 µM
BT-549 breast
  GI50: 4.87 µM
  TGI: > 100 µM
TK-10 renal
  GI50: 8.41 µM
  TGI: > 100 µM
OVCAR-8 ovarian
  GI50: 0.645 µM
  TGI: > 100 µM
MOLT-4 leukemia
  GI50: 0.382 µM
  TGI: 10.6 µM
MCF7 breast
  GI50: 1.76 µM
  TGI: 11 µM
SN12C renal
  GI50: 2.48 µM
  TGI: > 100 µM
NCI-H460 lung
  GI50: 0.443 µM
  TGI: 3.99 µM
PC-3 prostate
  GI50: 4.56 µM
  TGI: > 100 µM
OVCAR-4 ovarian
  GI50: 2.87 µM
  TGI: > 100 µM
OVCAR-3 ovarian
  GI50: 1.77 µM
  TGI: > 100 µM
A498 renal
  GI50: 1.87 µM
  TGI: 7.17 µM
NCI-H226 lung
  GI50: 2.25 µM
  TGI: 7.03 µM
SK-MEL-5 melanoma
  GI50: 2.17 µM
  TGI: > 100 µM
RXF 393 renal
  GI50: 2.24 µM
  TGI: 53.4 µM
SK-OV-3 ovarian
  GI50: 3.24 µM
  TGI: > 100 µM
KM12 colon
  GI50: 1.51 µM
  TGI: 20.4 µM
HT29 colon
  GI50: 4.8 µM
  TGI: > 100 µM
SR leukemia
  GI50: 0.311 µM
  TGI: 11.7 µM
786-0 renal
  GI50: 1.53 µM
  TGI: > 100 µM
HCT-116 colon
  GI50: 1.7 µM
  TGI: > 100 µM
CAKI-1 renal
  GI50: 0.252 µM
  TGI: 0.687 µM
NCI/ADR-RES ovarian
  GI50: 0.364 µM
  TGI: > 100 µM
IGROV1 ovarian
  GI50: 0.638 µM
  TGI: 3.64 µM
RPMI-8226 leukemia
  GI50: 1.45 µM
  TGI: > 100 µM
A549 NSCLC
  GI50: 2.51 µM
  TGI: > 100 µM
MDA-MB-435
  GI50: 1.37 µM
  TGI: > 100 µM
EKVX NSCLC
  GI50: 1.4 µM
  TGI: 7.46 µM
SNB-75 CNS
  GI50: 1.46 µM
  TGI: 6.62 µM
HOP-92 NSCLC
  GI50: 5.02 µM
  TGI: > 100 µM
SW-620 colon
  GI50: 1.52 µM
  TGI: > 100 µM
SK-MEL-28 melanoma
  GI50: 16 µM
  TGI: > 100 µM
NCI-H23 lung
  GI50: 0.783 µM
  TGI: > 100 µM
SF-295 CNS
  GI50: 0.318 µM
  TGI: 0.767 µM
HL-60(TB) leukemia
  GI50: 0.243 µM
  TGI: 0.783 µM
HS 578T breast
  GI50: 4.99 µM
  TGI: > 100 µM
ACHN renal
  GI50: 0.338 µM
  TGI: 2.82 µM
SF-268 CNS
  GI50: 0.494 µM
  TGI: 6 µM
HCC-2998 colon
  GI50: 3 µM
  TGI: > 100 µM
OVCAR-5 ovarian
  GI50: 5.48 µM
  TGI: > 100 µM
U251 CNS
  GI50: 0.773 µM
  TGI: > 100 µM
HCT-15 colon
  GI50: 0.533 µM
  TGI: > 100 µM
LOX IMVI melanoma
  GI50: 1.96 µM
  TGI: > 100 µM
UACC-257 melanoma
  GI50: 2.73 µM
  TGI: 16.7 µM
T-47D breast
  GI50: 2.41 µM
  TGI: > 100 µM
SK-MEL-2 melanoma
  GI50: 9.43 µM
  TGI: > 100 µM
SNB-19 CNS
  GI50: 2.97 µM
  TGI: > 100 µM
CCRF-CEM leukemia
  GI50: 1.01 µM
  TGI: 8.71 µM
DU-145 prostate
  GI50: 0.422 µM
  TGI: 4.32 µM
NCI-H522 lung
  GI50: 1.29 µM
  TGI: > 100 µM
K-562 leukemia
  GI50: 0.482 µM
  TGI: > 100 µM
HOP-62 NSCLC
  GI50: 2.14 µM
  TGI: 9.55 µM
